What is called IC50 is the concentration at which inhibition is half-maximal. Lower therefore signals greater potency.

Structures can show the parent of a compound that is named as a salt.

Sequence of PRMT5-MEP50 enzyme complex (O14744 2-637): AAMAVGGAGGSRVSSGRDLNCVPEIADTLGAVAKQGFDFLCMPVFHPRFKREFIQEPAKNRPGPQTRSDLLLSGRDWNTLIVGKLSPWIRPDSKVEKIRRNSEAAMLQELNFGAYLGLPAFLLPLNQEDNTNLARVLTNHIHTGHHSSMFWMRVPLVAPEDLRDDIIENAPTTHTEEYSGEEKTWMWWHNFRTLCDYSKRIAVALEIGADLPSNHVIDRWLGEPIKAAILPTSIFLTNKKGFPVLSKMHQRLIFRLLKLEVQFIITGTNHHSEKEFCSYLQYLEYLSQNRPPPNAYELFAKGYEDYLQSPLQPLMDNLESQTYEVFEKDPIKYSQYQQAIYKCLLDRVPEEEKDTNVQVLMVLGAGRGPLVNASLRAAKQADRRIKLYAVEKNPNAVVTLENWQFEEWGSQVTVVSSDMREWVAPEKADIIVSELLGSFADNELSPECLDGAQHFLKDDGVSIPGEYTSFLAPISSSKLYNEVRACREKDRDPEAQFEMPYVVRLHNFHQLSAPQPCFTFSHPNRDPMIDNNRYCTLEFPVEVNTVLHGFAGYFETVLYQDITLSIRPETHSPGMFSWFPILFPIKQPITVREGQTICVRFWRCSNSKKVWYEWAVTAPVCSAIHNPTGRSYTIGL
Sequence of PRMT5-MEP50 enzyme complex (Q9BQA1 2-342 partner): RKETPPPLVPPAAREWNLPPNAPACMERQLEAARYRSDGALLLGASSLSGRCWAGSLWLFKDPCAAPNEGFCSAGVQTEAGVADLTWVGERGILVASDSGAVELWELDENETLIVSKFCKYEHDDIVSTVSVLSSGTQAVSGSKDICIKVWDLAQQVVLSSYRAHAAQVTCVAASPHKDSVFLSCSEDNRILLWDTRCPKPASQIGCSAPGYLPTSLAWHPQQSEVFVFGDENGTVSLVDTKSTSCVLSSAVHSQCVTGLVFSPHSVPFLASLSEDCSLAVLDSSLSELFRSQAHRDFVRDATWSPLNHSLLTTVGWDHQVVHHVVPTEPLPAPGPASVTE

The assay addresses PRMT5-MEP50 enzyme complex (Homo sapiens (Human), UniProt O14744). In words: PRMT5 enzyme activity in vitro assay (methylation of histone H4R3, ELISA absorbance at 450 nm). The assay is classed as biochemical. Conditions: SAM, histone H4 peptide, room temperature 2 hours, 8 points from 10 μM to 0.128 nM. The essentials: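 Human PRMT5-MEP50 was prepared at 5 μg/mL with SAM at 2 μM and reacted 2 h at room temperature on plate-coated histone H4 (1-20) peptide. An 8-point 1:5 compound series ran from 10 μM to 0.128 nM. H4R3 methylation was detected by antibody/HRP ELISA at 450 nm to give IC50.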
`CN1CCN(C[C@H](O)CN2CCc3ccccc3C2)C(=O)c2ccc(OCc3ccc(F)cn3)cc21` [Example 139, 4-[(2R)-3-(3,4-dihydro-1H-isoquinolin-2-yl)-2-hydroxy-propyl]-8-[(5-fluoro-2-pyridyl)methoxy]-1-methyl-2,3-dihydro-1,4-benzodiazepin-5-one] gave a 50% inhibitory concentration (IC50) of 100 to 1000 nM.

The compound `CC1CN(C[C@H](O)CN2CCc3ccccc3C2)C(=O)c2ccc(OC3CCNCC3)cc2O1` (stereo partly drawn) [Example 140, 4-[(2R)-3-(3,4-dihydro-1H-isoquinolin-2-yl)-2-hydroxypropyl]-2-methyl-8-(4-piperidyloxy)-2,3-dihydro-1,4-benzoxazepin-5-one di hydrochloride] yielded an IC50 of 100 to 1000 nM.

With `CC1CN(C[C@H](O)CN2CCc3ccccc3C2)C(=O)c2ccc(OC3CCN(C)CC3)cc2O1` (stereo partly drawn) [Example 141, 4-[(2R)-3-(3,4-dihydro-1H-isoquinolin-2-yl)-2-hydroxypropyl]-2-methyl-8-[(1-methyl-4-piperidyl)oxy]-2,3-dihydro-1,4-benzoxazepin-5-one], the IC50 lay in the range of 1 to 100 nM.

Compound `CC(=O)N1CC(Oc2ccc3c(c2)O[C@H](C)CN(C[C@H](O)CN2CCc4ccccc4C2)C3=O)C1` [Example 142, (2R)-8-(1-acetylazetidin-3-yl)oxy-4-[(2R)-3-(3,4-dihydro-1H-isoquinolin-2-yl)-2-hydroxypropyl]-2-methyl-2,3-dihydro-1,4-benzoxazepin-5-one] showed an IC50 of 1 to 100 nM.

`C[C@@H]1CN(C[C@H](O)CN2CCc3ccccc3C2)C(=O)c2ccc(OC3CCN(C)CC3)cc2O1` [Example 143, (2R)-4-[(2R)-3-(3,4-dihydro-1H-isoquinolin-2-yl)-2-hydroxypropyl]-2-methyl-8-[(1-methyl-4-piperidyl)oxy]-2,3-dihydro-1,4-benzoxazepin-5-one]: the IC50 lay within 100 to 1000 nM.

As to `CC1CN(C[C@H](O)CN2CCc3ccccc3C2)C(=O)c2ccc(OC3CCN(C)CC3)nc2O1` (stereo partly drawn) [Example 144, 4-[(2R)-3-(3,4-dihydro-1H-isoquinolin-2-yl)-2-hydroxypropyl]-2-methyl-8-[(1-methyl-4-piperidyl)oxy]-2,3-dihydropyrido[3,2-f][1,4]oxazepin-5-one], the concentration for half-maximal inhibition (IC50) fell in the range of 100 to 1000 nM.

`CN1CCC(Oc2ccc3c(n2)OC(C)(C)CN(C[C@H](O)CN2CCc4ccccc4C2)C3=O)CC1` [Example 145, 4-[(2R)-3-(3,4-dihydro-1H-isoquinolin-2-yl)-2-hydroxypropyl]-2,2-dimethyl-8-[(1-methyl-4-piperidyl)oxy]-3H-pyrido[3,2-f][1,4]oxazepin-5-one]: the IC50 lay in the range of 100 to 1000 nM.

Compound `C[C@H]1CN(C[C@H](O)CN2CCc3ccccc3C2)C(=O)c2ccc(OC3CCN(C)CC3)cc2O1` [Example 146, (2S)-4-[(2R)-3-(3,4-dihydro-1H-isoquinolin-2-yl)-2-hydroxypropyl]-2-methyl-8-[(1-methyl-4-piperidyl)oxy]-2,3-dihydro-1,4-benzoxazepin-5-one] had a 50% inhibitory concentration (IC50) of 100 to 1000 nM.

Turning to `O=C1c2ccccc2OCCN1CC(O)CN1CCc2ccccc2C1` (stereo not drawn) [Example 147, 4-[3-(3,4-dihydro-1H-isoquinolin-2-yl)-2-hydroxy-propyl]-2,3-dihydro-1,4-benzoxazepin-5-one], the IC50 was in the range of 100 to 1000 nM.

Take `O=C1c2ccccc2CCCN1CC(O)CN1CCc2ccccc2C1` (stereo not drawn) [Example 148, 2-[3-(3,4-dihydro-1H-isoquinolin-2-yl)-2-hydroxy-propyl]-4,5-dihydro-3H-2-benzazepin-1-one]: the IC50 was 1000 to 10000 nM.

As to `O=C1c2ccccc2OCCN1C[C@H](O)CN1CCc2ccccc2C1` [Example 149, 4-[(2R)-3-(3,4-dihydro-1H-isoquinolin-2-yl)-2-hydroxy-propyl]-2,3-dihydro-1,4-benzoxazepin-5-one], the IC50 was 100 to 1000 nM.

On to `O=C1c2ccc(F)cc2OCCN1C[C@H](O)CN1CCc2ccccc2C1` [Example 150, 4-[(2R)-3-(3,4-dihydro-1H-isoquinolin-2-yl)-2-hydroxy-propyl]-8-fluoro-2,3-dihydro-1,4-benzoxazepin-5-one], for which the 50% inhibitory concentration (IC50) lay within 100 to 1000 nM.

`O=C1c2ccc(Br)cc2OCCN1C[C@H](O)CN1CCc2ccccc2C1` [Example 151, 8-bromo-4-[(2R)-3-(3,4-dihydro-1H-isoquinolin-2-yl)-2-hydroxy-propyl]-2,3-dihydro-1,4-benzoxazepin-5-one]: the IC50 is 1 to 100 nM.

In turn, `O=C1c2ccncc2OCCN1C[C@H](O)CN1CCc2ccccc2C1` [Example 152, 4-[(2R)-3-(3,4-dihydro-1H-isoquinolin-2-yl)-2-hydroxy-propyl]-2,3-dihydropyrido[4,3-f][1,4]oxazepin-5-one] yielded a half-inhibitory concentration (IC50) of 100 to 1000 nM.

`O=C1c2ccc(Cl)nc2OCCN1C[C@H](O)CN1CCc2ccccc2C1` [Example 153, 8-chloro-4-[(2R)-3-(3,4-dihydro-1H-isoquinolin-2-yl)-2-hydroxy-propyl]-2,3-dihydropyrido[3,2-f][1,4]oxazepin-5-one]: the 50% inhibitory concentration (IC50) was in the range of 100 to 1000 nM.

`O=C1c2ccc(Cl)cc2CCCN1C[C@H](O)CN1CCc2ccccc2C1` [Example 154, 7-chloro-2-[(2R)-3-(3,4-dihydro-1H-isoquinolin-2-yl)-2-hydroxy-propyl]-4,5-dihydro-3H-2-benzazepin-1-one] came in with an IC50 of 1 to 100 nM.

On to `CCN1CCN(C[C@H](O)CN2CCc3ccccc3C2)C(=O)c2ccc(Br)cc21` [Example 157, 8-bromo-4-[(2R)-3-(3,4-dihydro-1H-isoquinolin-2-yl)-2-hydroxy-propyl]-1-ethyl-2,3-dihydro-1,4-benzodiazepin-5-one], for which the IC50 lay in the range of 1 to 100 nM.

As for `N#CCN1CCC(Oc2ccc3c(c2)OCCN(C[C@H](O)CN2CCc4ccccc4C2)C3=O)CC1` [Example 159], the concentration for half-maximal inhibition (IC50) lay within 100 to 1000 nM.

`O=C1c2ccc(OC3CCN(C(=O)C(F)F)CC3)cc2OCCN1C[C@H](O)CN1CCc2ccccc2C1` [Example 160, 8-[[1-(2,2-difluoroacetyl)-4-piperidyl]oxy]-4-[(2R)-3-(3,4-dihydro-1H-isoquinolin-2-yl)-2-hydroxy-propyl]-2,3-dihydro-1,4-benzoxazepin-5-one] came in with a concentration for half-maximal inhibition (IC50) of 1 to 100 nM.

`O=C1c2ccc(OC3CN(C(=O)C(F)F)C3)cc2OCCN1C[C@H](O)CN1CCc2ccccc2C1` [Example 161]: the IC50 is 1 to 100 nM.

`O=C1c2ccc(OC3CCN(CCO)CC3)cc2OCCN1C[C@H](O)CN1CCc2ccccc2C1` [Example 162, 4-[(2R)-3-(3,4-dihydro-1H-isoquinolin-2-yl)-2-hydroxy-propyl]-8-[[1-(2-hydroxyethyl)-4-piperidyl]oxy]-2,3-dihydro-1,4-benzoxazepin-5-one]: the 50% inhibitory concentration (IC50) was in the range of 100 to 1000 nM.

In the case of `O=C1c2ccc(OC3CCN(CCF)CC3)cc2OCCN1C[C@H](O)CN1CCc2ccccc2C1` [Example 163, 4-[(2R)-3-(3,4-dihydro-1H-isoquinolin-2-yl)-2-hydroxy-propyl]-8-[[1-(2-fluoroethyl)-4-piperidyl]oxy]-2,3-dihydro-1,4-benzoxazepin-5-one], the IC50 lay in the range of 100 to 1000 nM.

The compound `O=C1c2ccc(OC3CCN(CCF)CC3)nc2OCCN1C[C@H](O)CN1CCc2ccccc2C1` [Example 164, 4-[(2R)-3-(3,4-dihydro-1H-isoquinolin-2-yl)-2-hydroxy-propyl]-8-[[1-(2-fluoroethyl)-4-piperidyl]oxy]-2,3-di hydropyrido[3,2-f][1,4]oxazepin-5-one] showed an IC50 of 100 to 1000 nM.

For the compound `CC1(CN2CCC(Oc3ccc4c(c3)OCCN(C[C@H](O)CN3CCc5ccccc5C3)C4=O)CC2)COC1` [Example 165, 4-[(2R)-3-(3,4-dihydro-1H-isoquinolin-2-yl)-2-hydroxypropyl]-8-[[1-[(3-methyloxetan-3-yl)methyl]-4-piperidyl]oxy]-2,3-dihydro-1,4-benzoxazepin-5-one], the IC50 fell in the range of 1 to 100 nM.

As for `N#CN1CCC(Oc2ccc3c(c2)OCCN(C[C@H](O)CN2CCc4ccccc4C2)C3=O)CC1` [Example 166, 4-[[4-[(2R)-3-(3,4-dihydro-1H-isoquinolin-2-yl)-2-hydroxypropyl]-5-oxo-2,3-dihydro-1,4-benzoazepin-8-yl]oxy]piperidine-1-carbonitrile], the IC50 was 100 to 1000 nM.

`CC(=O)N1CCN(Cc2ccc3c(c2)OC(C)(C)CN(C[C@H](O)CN2CCc4ccccc4C2)C3=O)CC1` [Example 167, 8-[(4-acetylpiperazin-1-yl)methyl]-4-[(2R)-3-(3,4-dihydro-1H-isoquinolin-2-yl)-2-hydroxy-propyl]-2,2-dimethyl-3H-1,4-benzoxazepin-5-one] displayed an IC50 of 100 to 1000 nM.

As for `CC1(C)CN(C[C@H](O)CN2CCc3ccccc3C2)C(=O)c2ccc(OC3CN(C=O)C3)cc2O1` [Example 168, 3-[[4-[(2R)-3-(3,4-dihydro-1H-isoquinolin-2-yl)-2-hydroxy-propyl]-2,2-dimethyl-5-oxo-3H-1,4-benzoxazepin-8-yl]oxy]azetidin-1-carbaldehyde], the IC50 is 1 to 100 nM.

In turn, `CC1(C)CN(C[C@H](O)CN2CCc3ccccc3C2)C(=O)c2ccc(CN3CCN(C=O)CC3)cc2O1` [Example 169, 4-[[4-[(2R)-3-(3,4-dihydro-1H-isoquinolin-2-yl)-2-hydroxy-propyl]-2,2-dimethyl-5-oxo-3H-1,4-benzoxazepin-8-yl]methyl]piperazine-1-carbaldehyde] came in with an IC50 of 100 to 1000 nM.

In turn, `CC1(C)CN(C[C@H](O)CN2CCc3ccccc3C2)C(=O)c2ccc(CN3CC4(COC4)C3)cc2O1` [Example 170, 4-[(2R)-3-(3,4-dihydro-1H-isoquinolin-2-yl)-2-hydroxy-propyl]-2,2-dimethyl-8-(2-oxa-6-azaspiro[3.3]heptan-6-ylmethyl)-3H-1,4-benzoxazepin-5-one] showed an IC50 of 100 to 1000 nM.

`CCN1C2CCC1CC(Oc1ccc3c(c1)OCCN(C[C@H](O)CN1CCc4ccccc4C1)C3=O)C2` (stereo partly drawn) [Example 171, 4-[(2R)-3-(3,4-dihydro-1H-isoquinolin-2-yl)-2-hydroxy-propyl]-8-[(8-ethyl-8-azabicyclo[3.2.1]octan-3-yl)oxy]-2,3-dihydro-1,4-benzoxazepin-5-one] yielded an IC50 of 1 to 100 nM.

The values are drawn from patent US11111237B2, “Bicyclic compound and use thereof” (SK BIOPHARMACEUTICALS CO., LTD., priority 2019, dated 2021).
